According to patent publication US20070093457A1, “Compositions for treatment of cancer and inflammation with curcumin and at least one nsaid” (priority 2004, published 2007):
pIC50: −log10 of the molar value.

Assays:
[1] = tested on: RASFs; test: RASF cell viability assay (XTT); assay type: cell-based; settings: Homo sapiens, 72 hours, read-out: IC50 cell growth
Procedure: RASFs that had been prepared from small pieces (2 mm in diameter) of human synovial tissue were grown after trypsinization in monolayers in tissue culture flasks, as known to a person skilled in the art. The synovial tissue specimens were obtained during total knee replacement surgery in patients diagnosed as having rheumatoid arthritis according to the revised criteria of the American College of Rheumatology. Synovial tissue was digested for 2 hours with 0.2% (weight/volume) bacterial collagenase and then suspended in Dulbecco's modified Eagle's medium (DMEM, Biological Industries, Israel) with 10% (volume/volume) fetal calf serum (FCS), 100 units/ml penicillin, and […] streptomycin. The cells were incubated at 37° C. in 5% CO2 for 3-5 days, after which the non-adherent cells were removed. Fibroblast-like adherent cells from the first or second passage were used as RASFs.
RASFs (1.5×10^4/well) were incubated at 37° C. in 96-well plastic plates with test drugs in DMEM containing 10% FCS in an atmosphere of 5% CO2 (fmal dimethyl sulfoxide concentration 0.1%). After 72 hours, cell viability was assessed by the ability of metabolically active cells to reduce tetrazolium salt (XTT) to colored formazan compounds. The absorbance of the samples was measured with a specific enzyme-linked immunoassay (ELISA) reader (wavelength 450 nm; reference wavelength 630 nm). […]

[2] = tested on: RASF cells; test: RASF apoptosis, flow-cytometric analysis
[3] = tested on: COX-2 mRNA; test: Reverse transcriptase PCR of COX-2 mRNA; assay type: cell-based, human; settings: HT-29; selected concentrations
Procedure: HT-29 cells were treated with the selected drugs as indicated. The mRNA was extracted, and equal amounts were transcribed to cDNA from a kit (Promega, CITY, USA). The cDNA was taken from samples at various times and used as the DNA templates for PCR. Primers used for COX-2 were: […]
GAPDH was used to ensure equal loading. […] were used as the template and […] of each primer was used for each cDNA sample. The samples went through 30 rounds of PCR. They were separated on 1% agarose gel and visualized by ethidium bromide. 7. Measurement of PGE2 Concentration

[4] = tested on: COX-2; settings: HT-29; curcumin 10-15 μM
Procedure: PGE2 concentration in the medium, as released by the cells, was determined by a commercially available PGE2-specific enzyme-linked immunoassay (R&D Biosystems, Abingdon, UK) according to the manufacturer's protocol.

Row | SMILES | pIC50 [1] | cell apoptosis (cells with sub-diploid DNA content) ([2]; celecoxib 20-40 μM) | COX-2 mRNA expression [3] | cell apoptosis (cells with sub-diploid DNA content) ([2]; curcumin 20 μM) | effect on PGE2 synthesis [4]
1 | Cc1ccc(-c2cc(C(F)(F)F)nn2-c2ccc(S(N)(=O)=O)cc2)cc1 [celecoxib, reference compound] | 4.40 | 4.8-19.2% | – | – | –
2 | COc1cc(/C=C/C(=O)CC(=O)/C=C/c2ccc(O)c(OC)c2)ccc1O [curcumin] | 4.46 | – | no effect | 4.7% | dose-dependent effect
